Measured values reported in patent publication EP1655284A1, “2-Phenylsulfopyrroles” (Aponetics AG, priority 2004, dated 2006).

Legend:
[1] = tested on: MRC5; assay: MTS proliferation assay; type: cell-based; conditions: Homo sapiens; MRC5, 72 h incubation
Experimental: (§1) The assay is performed in 96 well tissue culture plates. The cells (range : 1.5*10^3 - 10^4) are seeded out in 80 µl complete medium 24 h prior to compound treatment. The test compounds are added in 20 µl complete medium containing max 5% DMSO. The final compound concentrations in the assays are 10 µM, 3 µM, 1 µM and 0.3 µM, respectively. The assay plates are incubated for 72 h at culture conditions. The MTS reagent is prepared according to the manufacturer's protocol (Promega G1111). 20 µl MTS reagent are added to each well, the assay plates are quickly spun and incubated for another 3 h at culture conditions. Subsequently, the plates are shortly shaked and absorption measured with a microplate-reader at 492 nm. Table 3: MTS proliferation assay

[2] = tested on: Jily; assay: MTS proliferation assay; type: cell-based; conditions: 72 h incubation
Experimental: as §1

[3] = tested on: HeLa; assay: MTS proliferation assay; type: cell-based; conditions: Homo sapiens, 72 h incubation
Experimental: as §1

[4] = tested on: H460; assay: MTS proliferation assay; type: cell-based; conditions: Homo sapiens, NCI-H460; H460, 72 h incubation
Experimental: as §1

[5] = tested on: Jurkat; assay: MTS proliferation assay; type: cell-based; conditions: Homo sapiens, 72 h incubation
Experimental: as §1

[6] = tested on: HeLa; assay: Hoechst 33342 nuclear staining; type: cell-based, human; set-up: key: 0: no activity; 1: weak activity comprising less than 50% of the cells; 2: strong activity comprising more than 50% of the cells; conditions: 48 hour read-out
Experimental: (§2) This assay is performed in 96 well tissue culture plates. Appropriate number of cells (adherent cells: 3 - 5*10^3, suspension cells: 8 - 10*10^3) are being seeded out in 80 µl complete medium. Adherent cells are incubated for 24 h for proper spreading out before addition of test compounds while suspension cells are immediately treated with test compounds after seeding out. The test compounds are added in 20 µl complete medium containing max 5% DMSO. […] After 24 h or 48 h incubation at culture conditions, 10 µl medium containing Hoechst 33342 dye (Sigma B-2261) at 2-5 µg/ml are added to each well. The assay plates are then further incubated for 30 minutes and subsequently analyzed with a standard inverted fluorescence microscope.
(§3) The readout allows the determination of the fraction of apoptotic nuclei as well as other morphological criteria specific for apoptosis as a function of the treatment. Table 2: Hoechst 33342 nuclear staining (48 hour read-out)

[7] = tested on: H460; assay: Hoechst 33342 nuclear staining; type: cell-based, human; set-up: key: 0: no activity; 1: weak activity comprising less than 50% of the cells; 2: strong activity comprising more than 50% of the cells; conditions: 48 hour read-out
Experimental: as §2, §3

[8] = tested on: Jurkat; assay: Hoechst 33342 nuclear staining; type: cell-based, human; set-up: key: 0: no activity; 1: weak activity comprising less than 50% of the cells; 2: strong activity comprising more than 50% of the cells; conditions: 48 hour read-out
Experimental: as §2, §3

[9] = tested on: PBL; assay: Hoechst 33342 nuclear staining; type: cell-based; set-up: key: 0: no activity; 1: weak activity comprising less than 50% of the cells; 2: strong activity comprising more than 50% of the cells; conditions: 48 hour read-out
Experimental: as §2, §3

[10] = tested on: Jily; assay: Hoechst 33342 nuclear staining; type: cell-based; set-up: key: 0: no activity; 1: weak activity comprising less than 50% of the cells; 2: strong activity comprising more than 50% of the cells; conditions: 48 hour read-out
Experimental: as §2, §3

IC50 [3] | IC50 [4] | IC50 [5] | SMILES | IC50 [1] | IC50 [2] | Hoechst 33342 nuclear staining score (fraction of apoptotic nuclei) ([6]; 0.01µM) | Hoechst 33342 nuclear staining score (fraction of apoptotic nuclei) ([6]; 0.1µM) | Hoechst 33342 nuclear staining score (fraction of apoptotic nuclei) ([6]; 1µM) | Hoechst 33342 nuclear staining score (fraction of apoptotic nuclei) ([7]; H460, 0.01µM) | Hoechst 33342 nuclear staining score (fraction of apoptotic nuclei) ([7]; H460, 0.1µM) | Hoechst 33342 nuclear staining score (fraction of apoptotic nuclei) ([7]; H460, 1µM) | Hoechst 33342 nuclear staining score (fraction of apoptotic nuclei) ([8]; 0.01µM) | Hoechst 33342 nuclear staining score (fraction of apoptotic nuclei) ([8]; 0.1µM) | Hoechst 33342 nuclear staining score (fraction of apoptotic nuclei) ([8]; 1µM) | Hoechst 33342 nuclear staining score (fraction of apoptotic nuclei) ([9]; 0.01µM) | Hoechst 33342 nuclear staining score (fraction of apoptotic nuclei) ([9]; 0.1µM) | Hoechst 33342 nuclear staining score (fraction of apoptotic nuclei) ([9]; 1µM) | Hoechst 33342 nuclear staining score (fraction of apoptotic nuclei) ([10]; 0.01µM) | Hoechst 33342 nuclear staining score (fraction of apoptotic nuclei) ([10]; 0.1µM) | Hoechst 33342 nuclear staining score (fraction of apoptotic nuclei) ([10]; 1µM)
< 0.1 µM | < 0.1 µM | < 0.1 µM | COc1ccc(S(=O)(=O)n2cc(C(=O)Nc3ccc(N4CCOCC4)cc3)cc2-c2cc(OC)c(OC)c(OC)c2)cc1 [Example 3, N-p-morpholinophenyl-1-p-methoxyphenylsulfonyl-2-(3,4,5-trimethoxyphenyl)-Pyrrole-4-carboxamide] | < 0.1 µM | < 0.1 µM | 0 | 2 (strong activity comprising more than 50% of the cells.) | 2 (strong activity comprising more than 50% of the cells.) | 0 | 2 (strong activity comprising more than 50% of the cells.) | 2 (strong activity comprising more than 50% of the cells.) | 2 (strong activity comprising more than 50% of the cells.) | 2 (strong activity comprising more than 50% of the cells.) | 2 (strong activity comprising more than 50% of the cells.) | 0 | 0 | 0 | 2 (strong activity comprising more than 50% of the cells.) | 2 (strong activity comprising more than 50% of the cells.) | 2 (strong activity comprising more than 50% of the cells.)
0.1 to 1 µM | 0.1 to 1 µM | < 0.1 µM | COc1ccc(S(=O)(=O)n2cc(Br)cc2-c2cc(OC)c(OC)c(OC)c2)cc1 [Example 1, 4-Bromo-1-p-methoxyphenylsulfonyl-2-(3,4,5-trimethoxyphenyl)-pyrrole] | 0.1 to 1 µM | 0.1 to 1 µM | 0 | 0 | 2 (strong activity comprising more than 50% of the cells.) | 0 | 2 (strong activity comprising more than 50% of the cells.) | 2 (strong activity comprising more than 50% of the cells.) | 0 | 2 (strong activity comprising more than 50% of the cells.) | 2 (strong activity comprising more than 50% of the cells.) | 0 | 0 | 0 | 0 | 2 (strong activity comprising more than 50% of the cells.) | 2 (strong activity comprising more than 50% of the cells.)
0.1 to 1 µM | < 0.1 µM | < 0.1 µM | COc1ccc(S(=O)(=O)n2cccc2-c2cc(OC)c(OC)c(OC)c2)cc1 [Example 2, 1-p-methoxyphenylsulfonyl-2-(3,4,5-trimethoxyphenyl)-pyrrole] | < 0.1 µM | < 0.1 µM | 0 | 2 (strong activity comprising more than 50% of the cells.) | 2 (strong activity comprising more than 50% of the cells.) | 0 | 2 (strong activity comprising more than 50% of the cells.) | 2 (strong activity comprising more than 50% of the cells.) | 0 | 2 (strong activity comprising more than 50% of the cells.) | 2 (strong activity comprising more than 50% of the cells.) | 0 | 0 | 0 | 0 | 2 (strong activity comprising more than 50% of the cells.) | 2 (strong activity comprising more than 50% of the cells.)
